The source of these data is patent US20180057507A1, “INHIBITORS OF DUAL LEUCINE ZIPPER (DLK) KINASE FOR THE TREATMENT OF DISEASE” (Board of Regents, The University of Texas System, priority 2016, published 2018).

The target of assay [1] is T1, human DLK (Homo sapiens, UniProt Q12852).
T1 sequence (Q12852 1-859): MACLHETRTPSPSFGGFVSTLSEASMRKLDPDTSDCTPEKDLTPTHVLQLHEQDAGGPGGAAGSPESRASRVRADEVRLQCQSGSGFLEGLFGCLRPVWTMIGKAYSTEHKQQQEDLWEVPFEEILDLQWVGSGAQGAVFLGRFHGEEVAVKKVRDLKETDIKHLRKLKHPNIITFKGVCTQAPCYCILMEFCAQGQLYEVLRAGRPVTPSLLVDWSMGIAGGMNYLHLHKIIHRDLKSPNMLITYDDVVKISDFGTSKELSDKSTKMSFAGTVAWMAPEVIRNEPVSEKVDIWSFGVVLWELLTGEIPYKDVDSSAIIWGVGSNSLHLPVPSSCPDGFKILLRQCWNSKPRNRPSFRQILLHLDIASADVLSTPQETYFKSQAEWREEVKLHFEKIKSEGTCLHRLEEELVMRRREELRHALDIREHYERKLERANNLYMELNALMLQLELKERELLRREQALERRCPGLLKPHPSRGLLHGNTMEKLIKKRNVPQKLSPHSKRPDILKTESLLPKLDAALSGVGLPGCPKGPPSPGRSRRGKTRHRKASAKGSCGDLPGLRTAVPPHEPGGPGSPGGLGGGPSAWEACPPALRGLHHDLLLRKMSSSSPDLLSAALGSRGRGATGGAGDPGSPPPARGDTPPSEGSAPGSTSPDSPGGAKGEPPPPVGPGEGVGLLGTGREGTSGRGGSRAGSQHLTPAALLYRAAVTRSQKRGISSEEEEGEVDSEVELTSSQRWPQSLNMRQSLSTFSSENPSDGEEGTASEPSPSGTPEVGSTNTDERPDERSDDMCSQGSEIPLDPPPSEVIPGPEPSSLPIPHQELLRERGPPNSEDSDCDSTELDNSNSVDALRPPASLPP
The experiment in a line: DLK Kd Determinations (KINOMEscan KdELECT, DiscoveRx). Details: full length of human DLK (amino acids 1-859); host or cells: transiently transfected HEK293 cells; unpurified extract. The settings on record: fusion protein of full length human DLK (amino acids 1-859) and NFkB DNA binding domain; qPCR readout; duplicate. The gist of the method:
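Competition binding of full-length human DLK (aa 1-859)-NFkB DBD fusion, DNA-tagged, from HEK293 extracts against an immobilized ligand; 1 h at room temperature, 0.9% DMSO. Bead-bound kinase was quantified by qPCR. Kd came from an 11-point 3-fold series (top 30,000 nM), in duplicate, with Hill slope fixed at −1.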
In general terms: In qPCR the cycle at which signal appears reflects the starting amount.

Assay [2] has as its target T1, human DLK. Put plainly: Phospho-cJun Cellular Assay. In kind it is cell-based. Details: expressed in transfected cells. The settings on record: HEK293 cells stably transfected with Dox-inducible human DLK; p-cJun (Ser63); 5 h compound incubation. The gist of the method: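 HEK293 cells with doxycycline-induced human DLK (induced 20 h; uninduced cells as negative control) treated with compound for 5 h at 37 °C. Phospho-cJun (Ser63) measured in lysates with detection-antibody kit; IC50 from variable-slope dose-response fit.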

For orientation: Kd means the constant that tells how readily two partners part at equilibrium. The term IC50 denotes the point on the concentration scale where inhibition reaches its midpoint. Low readings indicate inhibition by little substance, high ones a need for much substance.

In turn, `CC(C)c1nc(-c2cnc(N)c(OC(F)(F)F)c2)cn1C1CC2(CC(N3CCOCC3)C2)C1` (stereo not shown) [Example 39, 5-(2-isopropyl-1-(6-morpholinospiro[3.3]heptan-2-yl)-1H-imidazol-4-yl)-3-(trifluoromethoxy)pyridin-2-amine] gave a Kd at human DLK [1] of 30 nM. For the same compound, the half-maximal inhibitory concentration (IC50) against human DLK [2] is 771 nM.
Taken in the same sequence, the figures for `COCCN1C[C@@H]2[C@H](C1)[C@H]2n1cc(-c2cnc(N)c(C(F)(F)F)c2)nc1CC(F)(F)F` [Example 121, 5-(1-((1R,5S,6s)-3-(2-methoxyethyl)-3-azabicyclo[3.1.0]hexan-6-yl)-2-(2,2,2-trifluoroethyl)-1H-imidazol-4-yl)-3-(trifluoromethyl)pyridin-2-amine] were 49 nM and 1590 nM.
For `Nc1ncc(-c2cn([C@H]3[C@@H]4CN(CCF)C[C@@H]43)c(C3CC3)n2)cc1C(F)(F)F` [Example 95, 5-(2-cyclopropyl-1-((1R,5S,6s)-3-(2-fluoroethyl)-3-azabicyclo[3.1.0]hexan-6-yl)-1H-imidazol-4-yl)-3-(trifluoromethyl)pyridin-2-amine] the same measures were 12.3 nM and 1200 nM.
On human DLK [1], `CC(C)c1nc(-c2cnc(N)c(C(F)(F)F)c2)cn1[C@H]1[C@@H]2CC(O)C[C@@H]21` (single isomer, unassigned) [Example 48b, 6-(4-(6-amino-5-(trifluoromethyl)pyridin-3-yl)-2-isopropyl-1H-imidazol-1-yl)bicyclo[3.1.0]hexan-3-ol] came in with a Kd of 59 nM. The compound also came in with an IC50 at human DLK [2] of 1240 nM.
Taken in the same sequence, the figures for `CCC(CC)c1nc(-c2cnc(N)c(C(F)(F)F)c2)cn1[C@H]1[C@@H]2CN(CCF)C[C@@H]21` [Example 125, 5-(1-((1R,5S,6s)-3-(2-fluoroethyl)-3-azabicyclo[3.1.0]hexan-6-yl)-2-(pentan-3-yl)-1H-imidazol-4-yl)-3-(trifluoromethyl)pyridin-2-amine] were 120 nM and 1290 nM.
For `CC(C)c1nc(-c2cnc(N)c(C(F)(F)F)c2)cn1[C@H]1[C@@H]2CC(N3CCOCC3)C[C@@H]21` (single isomer, unassigned) [Example 127a] the same measures were 52 nM and 939 nM.
Taken in the same sequence, the figures for `CC(C)c1nc(-c2cnc(N)c(C(F)(F)F)c2)cn1C1CC2(C1)CN(C1COC1)C2` [Example 31, 5-(2-isopropyl-1-(2-(oxetan-3-yl)-2-azaspiro[3.3]heptan-6-yl)-1H-imidazol-4-yl)-3-(trifluoromethyl)pyridin-2-amine] were 82 nM and 2150 nM.
As for `CC(C)c1nc(-c2cnc(N)c(C(F)(F)F)c2)cn1[C@H]1C[C@@H](N2CCCOCC2)C1` [Example 45, 5-(1-((1s,3s)-3-(1,4-oxazepan-4-yl)cyclobutyl)-2-isopropyl-1H-imidazol-4-yl)-3-(trifluoromethyl)pyridin-2-amine], the affinity on human DLK [1], expressed as Kd, was 340 nM. On human DLK [2], the IC50 stood at 6190 nM.
For `Nc1ncc(-c2cn([C@H]3[C@@H]4CN(C5COC5)C[C@@H]43)c(C3CC3)n2)cc1OC(F)(F)F` [Example 65, 5-(2-cyclopropyl-1-((1R,5S,6s)-3-(oxetan-3-yl)-3-azabicyclo[3.1.0]hexan-6-yl)-1H-imidazol-4-yl)-3-(trifluoromethoxy)pyridin-2-amine] the same measures were 32 nM and 1050 nM.
Taken in the same sequence, the figures for `Nc1ncc(-c2cn([C@H]3[C@@H]4CC(N5CCOCC5)C[C@@H]43)c(CC3CC3)n2)cc1C(F)(F)F` (single isomer, unassigned) [Example 138b, 5-(2-(cyclopropylmethyl)-1-(3-morpholinobicyclo[3.1.0]hexan-6-yl)-1H-imidazol-4-yl)-3-(trifluoromethyl)pyridin-2-amine] were 34 nM and 1050 nM.
For `CN1CCN(C2C[C@@H]3[C@H](C2)[C@H]3n2cc(-c3cnc(N)c(C(F)(F)F)c3)nc2CC2CC2)CC1` (single isomer, unassigned) [Example 161a, 5-(2-(cyclopropylmethyl)-1-(3-(4-methylpiperazin-1-yl)bicyclo[3.1.0]hexan-6-yl)-1H-imidazol-4-yl)-3-(trifluoromethyl)pyridin-2-amine] the same measures were 19 nM and 454 nM.
Consider `Nc1ncc(-c2cn([C@H]3[C@@H]4CN(CCF)C[C@@H]43)c(C3CC3)n2)cc1OC(F)(F)F` [Example 69, 5-(2-cyclopropyl-1-((1R,5S,6s)-3-(2-fluoroethyl)-3-azabicyclo[3.1.0]hexan-6-yl)-1H-imidazol-4-yl)-3-(trifluoromethoxy)pyridin-2-amine], for which the Kd at human DLK [1] is 45 nM. This compound also gave an IC50 against human DLK [2] of 2440 nM.
Taken in the same sequence, the figures for `CN1CCN(C2C[C@@H]3[C@H](C2)[C@H]3n2cc(-c3cnc(N)c(OC(F)(F)F)c3)nc2CC2CC2)CC1` (single isomer, unassigned) [Example 151b, 5-(2-(cyclopropylmethyl)-1-(3-(4-methylpiperazin-1-yl)bicyclo[3.1.0]hexan-6-yl)-1H-imidazol-4-yl)-3-(trifluoromethoxy)pyridin-2-amine] were 20 nM and 826 nM.
For `Nc1ncc(-c2cn([C@H]3[C@@H]4CC(N5CCCOCC5)C[C@@H]43)c(C3CC3)n2)cc1C(F)(F)F` (single isomer, unassigned) [Example 141a, 5-(1-(3-(1,4-oxazepan-4-yl)bicyclo[3.1.0]hexan-6-yl)-2-cyclopropyl-1H-imidazol-4-yl)-3-(trifluoromethyl)pyridin-2-amine] the same measures were 26 nM and 655 nM.
For `Nc1ncc(-c2cn([C@H]3[C@@H]4CC(N5CCN(CCF)CC5)C[C@@H]43)c(C3CC3)n2)cc1OC(F)(F)F` (single isomer, unassigned) [Example 154b, 5-(2-cyclopropyl-1-(3-(4-(2-fluoroethyl)piperazin-1-yl)bicyclo[3.1.0]hexan-6-yl)-1H-imidazol-4-yl)-3-(trifluoromethoxy)pyridin-2-amine] the same measures were 17 nM and 597 nM.
The compound `Nc1ncc(-c2cn([C@H]3[C@@H]4CC(N5CCN(CCF)CC5)C[C@@H]43)c(CC3CC3)n2)cc1OC(F)(F)F` (single isomer, unassigned) [Example 152b, 5-(2-(cyclopropylmethyl)-1-(3-(4-(2-fluoroethyl)piperazin-1-yl)bicyclo[3.1.0]hexan-6-yl)-1H-imidazol-4-yl)-3-(trifluoromethoxy)pyridin-2-amine] had a Kd on human DLK [1] of 13 nM. At human DLK [2], this compound came in with an IC50 of 1150 nM.
Taken in the same sequence, the figures for `CC(C)Cc1nc(-c2cnc(N)c(OC(F)(F)F)c2)cn1[C@H]1[C@@H]2CC(N3CCN(C)CC3)C[C@@H]21` (stereo partly shown) [Example 158, 5-(2-isobutyl-1-(3-(4-methylpiperazin-1-yl)bicyclo[3.1.0]hexan-6-yl)-1H-imidazol-4-yl)-3-(trifluoromethoxy)pyridin-2-amine] were 12 nM and 500 nM.
For `Nc1ncc(-c2cn([C@H]3[C@@H]4CN(C5COC5)C[C@@H]43)c(CC3CC3)n2)cc1OC(F)(F)F` [Example 92, 5-(2-(cyclopropylmethyl)-1-((1R,5S,6s)-3-(oxetan-3-yl)-3-azabicyclo[3.1.0]hexan-6-yl)-1H-imidazol-4-yl)-3-(trifluoromethoxy)pyridin-2-amine] the same measures were 55 nM and 1820 nM.
For `CC(C)c1nc(-c2cnc(N)c(C(F)(F)F)c2)cn1[C@H]1[C@@H]2CC(N3CCOC[C@@H]3C)C[C@@H]21` (stereo partly drawn) [Example 143, 5-(2-isopropyl-1-(3-((S)-3-methylmorpholino)bicyclo[3.1.0]hexan-6-yl)-1H-imidazol-4-yl)-3-(trifluoromethyl)pyridin-2-amine] the same measures were 19 nM and 1510 nM.
In the case of `CC(C)c1nc(-c2cnc(N)c(C(F)(F)F)c2)cn1[C@H]1[C@@H]2CC(N3CCOCC3)C[C@@H]21` (single isomer, unassigned) [Example 127b], at human DLK [1], the Kd is 61 nM. Besides, the IC50 against human DLK [2] stood at 633 nM.
